Data taken from patent publication EP1462117A1, “Method for in vivo detection of antipsychotic properties of dopamine D3 receptor ligands” (priority 2003, dated 2004).
Where a name gives a salt, the structure may show the parent alone.

Tests used:
[1] = test system: D3 receptor-deficient mice (D3R^-/-); experiment: MK-801-induced locomotor activity in D3 receptor-deficient mice; format: in vivo
Protocol: (§1) Male Swiss mice (Iffa Credo, France), weighing 25-30 g, were housed four per cage (25 × 15 × 13 cm), on a 12 hr/12 hr light/dark cycle (lights on at 07:00 a.m.), with food and water ad libitum. […] Experiments with D3R-deficient mice were performed on male homozygous mutant mice and their wild-type littermates. […] The mice used in the present study were backcrossed 7 to 8 times.
(§2) All experiments were conducted between 2.00 p.m. and 6.00 p.m., and the animals were kept in the test room at least 1 h before recording their activity. […] Counts for forward horizontal activity were incremented each time the animal moved from one-half part of the cage to the other, corresponding to disruption of two crossed parallel beams distant of 14 cm. In time-course studies, counts were summed every 5 min.
(§3) In addition, another experiment was performed with two groups of 8 mice of each genotype, injected with either saline or haloperidol (0.05 mg/kg).
(§4) Between-group differences were analyzed with the Statistica™ software using two-way analysis of variance (ANOVA) and Least Significance Difference (LSD) post-hoc test. The analysis of data obtained with the same animals evaluated on several occasions (time-course experiments), between-within univariate or multivariate ANOVA for repeated measures were used (time being the repeated measure).

[2] = Plasma concentrations in monkeys (radioreceptor assay); format: in vivo; conditions: monkey; for time of maximal plasma concentration: in vivo; for half-life: plasma
MPTP-intoxicated monkeys = experiment: Levodopa-induced dyskinesia, PD-like symptoms and locomotor activity in MPTP-intoxicated monkeys
Swiss mice [3] = experiment: Locomotor hyperactivity induced by continuous infusion of MK-801 (osmotic minipumps); format: in vivo
Protocol: Male Swiss mice (IFFA CREDO, France), weighing 26-28 g, were housed six per cage (25 × 15 ×13 cm), on a 12 h/12 h light/dark cycle (lights on at 07:00 a.m.), with food and water freely available. Room temperature ranged from 20° to 22°C and humidity varied between 55% and 65%.
(§5) Dizocilpine, as (+)-MK-801 maleate (Sigma), dissolved in 0.9% NaCl (saline), and its respective vehicle solution, was continuously infused via osmotic minipumps (Model 1007D, Alzet Corp.). Minipumps were filled 6 h prior to implantation and placed in a sterile saline water bath at 37°C. Taking into consideration the average weight of the mice at the time of testing, and the rate of the minipump delivery (specified by the manufacturer), the MK-801 concentration was adjusted to deliver 0.01 or 0.02 mg/kg/hr (0.48 mg/kg/day). Mice were anaesthetized with chloral hydrate (400 mg/kg i.p.), and an area on the back of the mice was shaved and cleaned with 70% ethanol. A small incision was made, a pocket beneath the skin was formed and the minipump was placed inside the pocket in each mouse. The incision was sutured, and cleaned with 70% ethanol. The mice were returned in their home cage and in about 2 h they had recovered and were active.
(§6) Once the minipumps implanted (Day 0), the locomotor activity was measured for 1h, at days 2, 4 and 7 in an actimeter (Imetronic, Pessac, France).
as §4, with “measure). Data from the resident-intruder assay were analyzed by analysis of variance (ANOVA), followed by a Tukey-Kramer Multiple Comparison post-hoc test.” for “measure).”

Swiss mice [4] = experiment: MK-801 (dizocilpine)-induced and spontaneous locomotor activity, acute treatment, actimeter; format: in vivo
Protocol: as §1
Haloperidol (Janssen Pharmaceuticals, Beerse, Belgium) and clozapine (Novartis, Basel, Switzerland) were dissolved in a few drops of hydrochloric acid and distilled water, and the pH of the solution was adjusted to pH 5 to 6 using NaOH. […] The compounds were injected i.p. in a volume of 5 ml/kg.
as §2, §4
To assess simply the in vivo biological activity of the novel compound at the D3 receptor, the above described test, in which hyperlocomotion induced by low doses of dizocilpine is measured, was used.

wild-type (D3R^+/+) mice = experiment: MK-801-induced locomotor activity in wild-type mice; format: in vivo; conditions: haloperidol 0.05 mg/kg; MK-801 […]; D3R^+/+ mice
Protocol: Male Swiss mice (Iffa Credo, France), weighing 25-30 g, were housed four per cage (25 × 15 × 13 cm), on a 12 hr/12 hr light/dark cycle (lights on at 07:00 a.m.), with food and water ad libitum. […] Experiments with D3R-deficient mice were performed on male homozygous mutant mice and their wild-type littermates. […] Subsequently, these mice were backcrossed up to 8 times with C57BL6 mice. The mice used in the present study were backcrossed 7 to 8 times.
as §2, §3, §4

MK-801-treated mice = experiment: Resident-intruder assay in MK-801-treated mice; format: in vivo; conditions: MK-801 0.02 mg/kg/h for 7 days vs sham
Protocol: Male mice were housed individually or in groups of five for at least 1 week prior to minipump implantation (Day 0), delivering MK-801 (0.02 mg/kg/h) or saline (Sham), and were tested at day 7. As described in Dixon et al. (1994), a group-housed male (intruder) was placed in the home cage of the individually housed male (resident), and their behaviors were video recorded for 5 min. […] The videotaped behaviors of the resident or intruder male were individually scored, by an experimenter unaware of the treatment group, for time spent in social investigation (approaching, sniffing, grooming other mouse, and sexual behavior), and in escape behavior (actively avoiding the unfamiliar congener). The scores for each behavior were subsequently averaged for each group.
as §4, with “measure). Data from the resident-intruder assay were analyzed by analysis of variance (ANOVA), followed by a Tukey-Kramer Multiple Comparison post-hoc test.” for “measure).”

[5] = test system: D3 receptor gene-targeted (D3^-/-) mice; experiment: Continuous MK-801 infusion in D3 receptor gene-targeted mice, locomotor activity; format: in vivo
Protocol: as §5, with “A small incision was made, a pocket beneath the skin was formed and the minipump was placed inside the pocket in each mouse. The incision was sutured, and cleaned with 70% ethanol. The mice were returned in their home cage and in about 2 h they had recovered and were active.” left out
as §6
as §4, with “measure). Data from the resident-intruder assay were analyzed by analysis of variance (ANOVA), followed by a Tukey-Kramer Multiple Comparison post-hoc test.” for “measure).”

Dopamine transporter = Dopamine transporter binding in monkey striatum (autoradiography); design: species or system Macaca fascicularis; conditions: dorsolateral quadrant, rostral level
[6] = Plasma concentrations in mice; format: in vivo; conditions: dose inhibiting dizocilpine-induced hyperlocomotion
[7] = one monkey, nafadotride 1.0 mg/kg
[8] = same monkey, nafadotride 1.3 mg/kg
[9] = habituation phase, 30 min starting 5 min after injection, all doses tested
[10] = chronic infusion through osmotic minipumps for 7 days
[11] = dyskinetic levodopa-treated MPTP-monkeys
[12] = non-dyskinetic levodopa-treated MPTP-monkeys

## CCCCN1CCCC1CNC(=O)c1cc(C#N)c2ccccc2c1OC (stereo not shown) [nafadotride, N[(n-butyl-2-pyrrolidinyl)methyl]-1-methoxy-4-cyano naphtalene-2-carboxamide]
[1]; compound 1 mg/kg, MK-801 […], D3R^-/- mice
  locomotor response to MK-801: no longer able to inhibit
[2]
  time of maximal plasma concentration: 60 min
  half-life: ~50 min
MPTP-intoxicated monkeys; from activity counts, threshold at 30% of the maximal activity, over 5 hr
  on-time duration: markedly reduced
MPTP-intoxicated monkeys; [7]
  LID score: 0.5
  PD-like symptoms score: 0
MPTP-intoxicated monkeys; [8]
  score of LID: 0.5
  score of PD-like symptoms: 4
MPTP-intoxicated monkeys; with levodopa
  locomotor activity (activity counts): strongly reduced
MPTP-intoxicated monkeys; with levodopa, at first active dose, nafadotride on 3 out of 4 monkeys, ST 198 30-90 min after administration
  LID: reduction of LID similar to that obtained with BP 897

## O=C(CCCN1CCC(O)(c2ccc(Cl)cc2)CC1)c1ccc(F)cc1 [haloperidol]
Swiss mice [3]; acute administration on the 10th day after minipump implantation, clozapine 1 mg/kg, haloperidol 0.3 mg/kg, BP 897 1 mg/kg
  MK-801-induced hyperactivity: inhibited
Swiss mice [3]; subchronic treatment twice a day for 4.5 days from day 6, BP 897 1 mg/kg, haloperidol 0.3 mg/kg, recorded at least 6 hours after last administration
  spontaneous hyperactivity: reversed
Swiss mice [3]; subchronic treatment twice a day for 4.5 days from day 6, methamphetamine 1 mg/kg, recorded at least 6 hours after last administration
  methamphetamine-induced hyperactivity: reversed
Swiss mice [4]; MK-801 […], 60 min, compound i.p. 0.1, 0.3, 1 mg/kg (haloperidol 0.03, 0.1, 0.3 mg/kg), overall dose-response
  activity with MK-801: strongly and dose-dependently blocked
Swiss mice [4]; compound 0.03 mg/kg i.p., MK-801 […], post-hoc vs saline
  MK-801-induced hyperactivity: significantly reduced
Swiss mice [4]; compound 0.1 mg/kg i.p., MK-801 […], post-hoc vs saline
  MK-801-induced hyperactivity: significantly reduced
Swiss mice [4]; compound 0.3 mg/kg i.p., MK-801 […], post-hoc vs saline
  MK-801-induced hyperactivity: significantly reduced
Swiss mice [4]; compound 0.3 mg/kg i.p., post-hoc vs saline
  spontaneous activity: significantly reduced
Swiss mice [4]; [9]
  spontaneous activity: reduction of the spontaneous activity
wild-type (D3R^+/+) mice
  MK-801-induced locomotor activity: strongly inhibited

## C[C@]12N[C@H](Cc3ccccc31)c1ccccc12 [MK-801, (+)-5-methyl-10,11-dihydro-5H-dibenzo[a,d]cyclohepten-5,10-imine maleate]
[1]; D3 receptor-deficient mice
  MK-801-induced hyperactivity compared with wild-type littermates: two to three times less
[1]; MK-801 0.3 mg/kg, D3R^+/+ vs D3R^-/- mice
  stimulatory effects of MK-801, genotype comparison: no significant differences
Swiss mice [3]; [10]
  duration of locomotor hyperactivity after cessation of the drug delivery: at least 4 days
  time at which locomotor hyperactivity first appeared: 7 days
MK-801-treated mice
  Social investigations, effect of the MK-801 treatment: reduced
  escape behavior, effect of the MK-801 treatment: enhancement of escape behavior
Swiss mice [4]; MK-801 0.12 or 0.3 mg/kg i.p., after 30-min habituation
  locomotor activity after injection of MK-801: locomotor hyperactivity
Swiss mice [4]; locomotor activity, i.p.
  response induced by MK-801 at 0.3 mg/kg relative to […]: about three
[5]; MK-801 0.02 mg/kg/h during 7 days, methamphetamine 1 mg/kg i.p.
  hypersensitivity to methamphetamine: completely abolished
[5]; MK-801 0.02 mg/kg/h for 7 days
  attenuation of MK-801-induced hyperactivity compared to wild-type (D3^+/+) mice: ~ 50%

## N[C@@H](Cc1ccc(O)c(O)c1)C(=O)O [levodopa]
MPTP-intoxicated monkeys; dyskinetic monkeys under levodopa, parkinsonism corresponds to a score above 6
  parkinsonian score: 0.2 ± 0.1
MPTP-intoxicated monkeys; five out of nine levodopa-treated monkeys (severe LID), maximum of 4, levodopa 47 to 60 mg/kg twice daily for 6-8 months
  LID score: 3.4 ± 0.1
MPTP-intoxicated monkeys; the four remaining levodopa-treated animals
  LID score: < 0.4

## CN1CC=C(c2ccccc2)CC1 [MPTP, 1-methyl-4-phenyl-1,2,3,6-tetrahydropyridine]
Dopamine transporter; MPTP-monkeys
  decrease of DAT binding in Pu: 97.1 ± 0.3%
Dopamine transporter; MPTP-monkeys, vs controls
  decrease of DAT binding in Cd: 96.3 ± 0.3%
Dopamine transporter; [11]
  decrease of DAT binding in Cd: 95.7 ± 0.8%
  decrease of DAT binding in Pu: 95.0 ± 1.3%
Dopamine transporter; [12]
  decrease of DAT binding in Cd: 96.7 ± 0.4%
  decrease of DAT binding in Pu: 97.0 ± 0.4%

## O=C(/C=C/c1ccccc1)NCCCCN1CCc2ccccc2C1 [ST 198, (E)-N-(4-[1,2,3,4-tetrahydroisoquinolin-2-yl]-butyl)-3-phenylacrylamide]
[6]
  maximal plasma concentration: 3.7 ± 0.2 µM
[2]
  time of maximal plasma concentration: 30 min
  half-life: ~30 min

## CN1CCN(C2=Nc3cc(Cl)ccc3Nc3ccccc32)CC1 [clozapine]
Swiss mice [4]; [9]
  spontaneous activity: no effect
